Reference: article PMC7889660, “Complex precursor structures of cytolytic cupiennins identified in spider venom gland transcriptomes” (Scientific Reports, 2021)
Read-outs that look alike come from different tables or passages of the source. Ends that are not written are not given here.

Key:
Drosophila melanogaster [1] = conditions: Drosophila flies, 0.05 µl injected, 50% of flies die after 24 h; cited from earlier work
Protocol: Table 3 Insecticidal activities of selected cupiennins, CsTx-16 variants, neurotoxins CsTx-1, CsTx-9, and CsTx-13, and cyto-insectotoxin CIT1a. Different concentrations of peptides were dissolved in 0.1 M ammonium acetate, pH 6.1, and 0.05 µl was injected into Drosophila flies. The lethal dose (LD50, pmol/mg fly), where 50% of the flies die after 24 h, was calculated with PRISM Vers. 6.07. * Data | column: LD50 / (pmol/mg fly)

Drosophila melanogaster [2] = experiment: Insecticidal bioassay with Drosophila flies, lethal dose (LD50) 24 h after injection; format: in vivo; conditions: for LD50: synthetic C-terminally amidated peptide in 0.1 M ammonium acetate pH 6.1, 0.05 µl injected intrathoracically into flight muscles of female flies (1- to 7-days old), 50% of flies die after 24 h, minimum five doses, each n = 20, PRISM Vers. 6.07
Protocol: The insecticidal activity of different cupiennins was investigated in a bioassay with Drosophila melanogaster and the lethal dose, where 50% of the insects die of intoxication after 24 h of injection, calculated. […] The shorter LPs such as Cu 3a, d, and Cu 4a, were with 12.4–38.5 pmol/mg fly less toxic.
Cupiennins 3a, 3b, 4a, 6a, 6b, 6d, 7b, 8, and the two-chain CsTx-16a1b1, and CsTx-16c1d1 were synthesized (all C-terminally amidated) by GeneCust, (Dulange, Luxembourg). Bioassays using Drosophila flies were performed as described elsewhere. Briefly, all peptides were dissolved in 0.1 M ammonium acetate, pH 6.1 and 0.05 µl injected intrathoracically into the flight muscles of female flies (1- to 7-days old). For each peptide, in minimum five different peptide doses were injection into the flies (each n = 20) and also a negative control with only buffer was injected (n = 10). Calculations of the lethal dose (LD50) were done with GraphPad PRISM Vers. 6.07 (GraphPad Software, San Diego, CA, USA).

Cu 1b: cytolytic linear cationic peptide, Cu 1 family, transcript C1 (GFGSLFKFLAKKVAKTVAKQAAKQGAKYIANKQMEG-NH2)
LD50 (Drosophila melanogaster [1]): 4.7 pmol/mg fly

Cu 8: Cu 8 family linear peptide of 20 residues, transcript B, synthesized by GeneCust (IWRMPKKVLKLLAAFRGKEG-NH2)
Toxicity ranking among tested cupiennins (Drosophila melanogaster [2]; Drosophila, LD50 after 24 h): lowest toxicity
LD50 (Drosophila melanogaster [2]): 159.7 pmol/mg fly

Cu 6d: Cu 6 family linear peptide, synthesized by GeneCust (FINTIKLLIEKYREWKNKQSSG-NH2)
LD50 (Drosophila melanogaster [2]): 23.2 pmol/mg fly

Cu 3a: Cu 3 family linear peptide, synthesized by GeneCust (GFGSLFKFLGKKLLKTVAKQAAKKQMEG-NH2)
LD50 (Drosophila melanogaster [2]): 18.7 pmol/mg fly
